Entries after “also recorded” stand apart in the source; their conditions may differ.
Columns and labels:
[1] = LCMS quantitation of compound in harvested tumors; format: in vivo, athymic nude mouse; details: i.p. 50 mg/kg, 5× per week over 28 days
Experimental: Mass spectrometry analysis and Sample preparation. Tumor tissue was isolated, flash frozen in liquid nitrogen, and stored at −80° C. until analysis. Prior to LC-MS analysis, samples were milled in liquid nitrogen and weighed. Tissue was then placed in tubes containing ˜50-75 μL of glass beads (NextAdvance SKU GB10), resuspended to 15 mg/ml in methanol:acetonitrile:water (5:3:2, v:v:v) and processed using a Bullet Blender® (Next Advance, Troy, NY, USA) for 5 minutes at level 4 at 4° C. Suspensions were then vortexed continuously for 30 min at 4° C. Insoluble material was removed by centrifugation at 10,000 g for 10 min at 4° C. and supernatants were isolated for metabolomics analysis by UHPLC-MS. Standard curves were prepared by serial dilution of the purified AA-29-141 compound into a pool of vehicle-treated tumor extract.
UHPLC-MS analysis for quantification of 42 in tumor tissue. Analyses were performed as previously published. Briefly, the analytical platform employs a Vanquish UHPLC system (Thermo Fisher Scientific, San Jose, CA, USA) coupled online to a Q Exactive mass spectrometer (Thermo Fisher Scientific, San Jose, CA, USA). […]

SW620 cells = experiment: Clonogenic assay (24 h pretreatment of cells); format: cell-based; details: SW620 cells pretreated 24 hours, colonies over 7 days vs DMSO
Experimental: Clonogenic assay. SW620 cells were plated to allow for 70% confluency within 24 hours. Analogs 3, 7, and vehicle (DMSO) were then added to cells for 24 hours as pretreatment. A total of 1000 viable cells per well were plated into a six-well plate and medium was changed 2× per week. […] The fixed colonies were stained with 0.5% (w/v) crystal violet in 25% (v/v) methanol solution for 2 hours at room temperature. The stain was rinsed off with water and the plate was air dried at room temperature. Digital pictures were taken, and the images were saved in greyscale (8-bit). Images were adjusted for threshold with imaged software (Bethesda, MD, USA), the area of analysis was circled, and particles were analyzed by size (100-2000) and circularity (0.5-1).
After characterizing 3 and 7 as TOP2A ATP-competitive inhibitors, these compounds were next tested for their ability to inhibit TOP2A-dependent TCF-transcription using the well characterized TOPflash (TOP) luminescent reporter, which was used to generate a stably transduced SW620-TOP reporter cells as described previously (Zhou, et al., Oncogene 2016, 35:4990-9). These cells were used to generate single 3D tumor organoids (700 μm in diameter) uniformly arrayed in 96-well plates, which mimic aspects of tumor function observed in vivo. […]

Row | SMILES | quantity of compound in tumors (LCMS/HRMS) [1] | clonogenic colony formation, in words (SW620 cells)
1 | O=C(CCN1CCOCC1)Nc1ccc2c(-c3cc(F)ccc3O)ccnc2c1O [Analog 42] | significant HRMS quantity | 
2 | CC(=O)Nc1ccc2c(-c3cc(F)ccc3O)ccnc2c1O [Analog 7] |  | sufficient to inhibit colony formation; also recorded: significantly inhibit clonogenic colony formation

Source: US12291502B2, “Topoisomerase II-alpha inhibitors and methods of treating cancer using the same” (The Regents of the University of Colorado, priority 2019, dated 2025)
